Results as given in patent US7601847B2, “Preparation and purification of 4-(indazol-3-yl)phenols” (Wyeth, priority 2004, dated 2009).
Converted amounts (≈) assume the structure as drawn.

Assay: relative solubility in a mixture of methanol and water
Format: physicochemical
Details: mixture of methanol and water (57:43 v/v); for solubility: methanol/water mixture (57:43 v/v), aqueous with cosolvent or surfactant or cyclodextrin

| solubility [mg/mL] | difference in solubility in favor of the impurity (VI vs compound I) [×] | SMILES |
| --- | --- | --- |
| 140 (≈ 419 mM) | 20 | C=CCn1nc2c(C(F)(F)F)cccc2c1-c1ccc(O)cc1O [VI] |
| 6 (≈ 17.9 mM) | – | C=CCn1nc(-c2ccc(O)cc2O)c2cccc(C(F)(F)F)c21 [I, 4-[1-allyl-7-(trifluoromethyl)-1H-indazol-3-yl]benzene-1,3-diol] |
